Experimental data taken from article PMC5584254, “Identification of novel small molecule Beclin 1 mimetics activating autophagy” (Oncotarget, 2017).
Each block holds one molecule with its values, some of them ahead of it.

Legend:
PC-3 = test: MTT-based cytotoxicity assay, PC-3; conditions: Homo sapiens, averages of at least two independent experiments, read-out: Cytotoxicity in different cell lines (IC50, μM) PC-3
From the text: (§1) Human prostate cancer cell lines PC-3 and DU145, were purchased from American Type Culture Collection (ATCC) and used within 50 passages. PC-3a is a derivative of PC-3 that is resistant to chemo/radiotherapy, established in our lab and confirmed by genotyping. All cells were maintained in DMEM (Mediatech, Manassas, VA) supplemented with 10% fetal bovine serum (FBS) (Sigma-Aldrich, St. Louis, MO), 1% Glutamine (Mediatech, Manassas, VA), 1% antibiotics (Mediatech, Manassas, VA). Compounds for primary FP-based HTS screening were from Prestwick, Microsource, University of Kansas Center of Excellence in Chemical Methodologies & Library Development (KU CMLD, Lawrence, KS), and Chembridge libraries. Compounds for MTT and SPR validation experiment were purchased from Microsource (Gaylordsville, CT) and Hit2lead Company (San Diego, CA). Acridine analogues, compound 1–6, were from our in-house library (provided by Specialized Chemistry Center, University of Kansas, Lawrence, KS); compound 7–17 were synthesized as described in supplementary information. (–)-Gossypol was isolated from racemic gossypol as we previously described. ABT-263 and DMSO were purchased from Sigma. MTT-based cytotoxicity assay and western blot analysis was carried out according to our previous publications. The primary antibodies used were LC3B (#2775) (Cell signaling Technology, Danvers, MA) and β-actin (A5441) (Sigma).

PC-3a = test: MTT-based cytotoxicity assay, PC-3a; conditions: Homo sapiens, averages of at least two independent experiments, read-out: Cytotoxicity in different cell lines (IC50, μM) PC-3a
From the text: as §1

DU145 = test: MTT-based cytotoxicity assay, DU145; conditions: Homo sapiens, DU-145, averages of at least two independent experiments, read-out: Cytotoxicity in different cell lines (IC50, μM) DU145
From the text: as §1

Bcl-xL protein = molecular target: T1, Bcl-xL protein (Homo sapiens, UniProt Q07817); test: Surface plasmon resonance assay, immobilized Bcl-xL; type: binding; conditions: SPR; 10 μM compound; Bcl-xL immobilized 10000 RU
T1 construct: made in house
T1 sequence (Q07817 whole entry): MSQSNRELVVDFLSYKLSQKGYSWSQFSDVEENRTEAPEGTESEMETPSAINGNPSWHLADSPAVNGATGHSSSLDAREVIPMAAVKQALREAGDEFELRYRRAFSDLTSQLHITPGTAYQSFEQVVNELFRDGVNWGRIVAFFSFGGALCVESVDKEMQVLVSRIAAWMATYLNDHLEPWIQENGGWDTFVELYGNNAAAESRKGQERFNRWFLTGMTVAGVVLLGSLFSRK
Description: The surface plasmon resonance experiments were performed using a Biacore 3000 (GE Healthcare Pittsburgh, PA) equipped with a research-grade CM5 sensor chip. The ligand (Bcl-xL) was immobilized using amine-coupling chemistry. The surfaces of flow cells on a Biacore sensor chip CM5 were activated for 7 min with a 1:1 mixture of 0.1 M NHS (N-hydroxysuccinimide) and 0.1 M EDC (3-(N,N-dimethylamino) propyl-N-ethylcarbodiimide) at a flow rate of 5 μL/min. The ligand (Bcl-xL) at a concentration of 180 μg/mL in 10 mM sodium acetate, pH 4.5, was immobilized at a density of about 10000 RU on flow cell 2; the ligand (SUMO-Bcl-2, 37.5 kDa, > 90% pure based on SDS–PAGE) at a concentration of 44 μg/ml in 10 mM sodium acetate, pH 4.5, was immobilized at a density of 10000 RU on flow cell 3; flow cell 1 was left blank to serve as a reference surface. All the surfaces were blocked with a 7 min injection of 1 M ethanolamine, pH 8.0.
For kinetic analysis, a concentration series of analyte were injected over the flow cells at a flow rate of 60 μL/min at 20 °C. The complex was allowed to associate and dissociate for 120 and 180 s, respectively. For binding studies, analyte (or test compound) was injected over the two flow cells in duplicate at indicated concentration at a flow rate of 60 μL/min at 20 °C. The running buffer consisted of 20 mM HEPES, 150 mM NaCl, 3 mM EDTA, 1 mM DTT, 0.05% P20, 5% DMSO, pH 7.4. The complex was allowed to associate and dissociate for 120 and 180 s, respectively. The buffer samples containing a range of 4–6% DMSO were injected at the beginning, used for solvent correction. The surfaces were regenerated between binding cycles with a 5 s injection of 5 mM NaOH for compounds and 10 mM Glycine pH 2.5 for 20-mer.
All measurements were taken with flow cell 1 as a reference (i.e. sensorgram depicts “2–1 correction”) and corrected for DMSO bulk differences via the calibration curves. To obtain kinetic rate constants (Ka and Kd), corrected response data were fit to a simple 1:1 interaction model using local fit (includes correction for mass transport limitations) available within Biaevaluation 3.1 software or Scrubber2 software. The equilibrium dissociation constant (KD) was determined by Kd/Ka.

Bcl-xL-Beclin 1 complex [1] = molecular target: T2, Bcl-xL-Beclin 1 complex (Homo sapiens, UniProt Q07817); test: FP-based high-throughput screening, primary screen; type: binding; conditions: first screen; 40 μM compound, 2.5 μM Bcl-xL, 400 nM 20-mer
T2 construct: made in house
T2 sequence (Q07817 whole entry, one chain of several): as the sequence (Q07817 whole entry) above
From the text: Next, we optimized the FP competitive binding assay in a 384-well microplate format and carried out a small-scale HTS using a small library, which contains 6580 compounds from Prestwick, Microsource and our in-house CMLD library. Then, the FP assay was optimized and applied in screening the larger Chembridge library consisting of 43736 compounds. HTS cascades are shown in Supplementary Figure 1A–1B. […] All chemical structures can be found on the PubChem website (http://pubchem.ncbi.nlm.nih.gov/).
(§2) Then the plates were read by Envision (Perkin Elmer, Waltham, MA). […] The hits were selected from library stocks and reconfirmed in a concentration response FP assay (6 doses ranging from 5 μM to 160 μM or 8 doses ranging from 0.5 μM to 60 μM).

Bcl-xL-Beclin 1 complex [2] = molecular target: T2, Bcl-xL-Beclin 1 complex; test: Concentration response FP reconfirmation of HTS hits; type: binding
Description: as §2

Compound: COc1ccc2nc3cc(Cl)ccc3c(NCCOCCO)c2c1 [Compound 8]
IC50 (PC-3): 1.42 ± 0.73 µM | IC50 (PC-3a): 1.64 ± 0.78 µM | IC50 (DU145): 3.68 ± 0.55 µM

Compound: COc1ccc2nc3cc(Cl)ccc3c(-c3ccc(N)cc3)c2c1 [Compound 17]
IC50 (PC-3): 29.5 ± 28.4 µM | IC50 (PC-3a): > 100 µM | IC50 (DU145): 53 ± 14.7 µM

binding level to Bcl-xL protein in SPR (Bcl-xL protein): almost no binding
Compound: COc1ccc(CCN(C)c2c3ccccc3nc3ccccc23)cc1OC [Compound 1]
IC50 (PC-3): 6.04 ± 0.68 µM | IC50 (PC-3a): 5.81 ± 1.16 µM | IC50 (DU145): 8.15 ± 0.59 µM

Compound: COc1cc(Br)c(CCNc2c3ccccc3nc3ccccc23)cc1OC [Compound 4]
IC50 (PC-3): 4.43 ± 0.46 µM | IC50 (PC-3a): 4.37 ± 0.68 µM | IC50 (DU145): 6.33 ± 0.32 µM

Compound: COc1ccc2nc3cc(Cl)ccc3c(Oc3ccccc3)c2c1 [Compound 10]
IC50 (PC-3): 14.1 ± 0.71 µM | IC50 (PC-3a): 36.1 ± 8.23 µM | IC50 (DU145): 77.7 ± 24.2 µM

Compound: COc1ccc2nc3cc(Cl)ccc3c(-c3ccncc3)c2c1 [Compound 13]
IC50 (PC-3): 52.4 ± 10.4 µM | IC50 (PC-3a): 53.9 ± 3.66 µM | IC50 (DU145): 57 ± 14.5 µM

Compound: CN(CCc1ccc(O)c(O)c1)c1c2ccccc2nc2ccccc12 [Compound 2]
IC50 (PC-3): 38.7 ± 5.46 µM | IC50 (PC-3a): 29.2 ± 11.2 µM | IC50 (DU145): 47 ± 7.39 µM

Compound: COc1ccc2nc3cc(Cl)ccc3c(-c3ccc(NC(=O)OC(C)(C)C)cc3)c2c1 [Compound 16]
IC50 (PC-3): 45 ± 20.2 µM | IC50 (PC-3a): 38.7 ± 20.4 µM | IC50 (DU145): 36 ± 14 µM

Compound: O=C1C(Cl)=C(Cl)C(=O)C(Cl)=C1Cl [Compound A27, CHLORANIL]
Primary Screen mP (Bcl-xL-Beclin 1 complex [1]): 140.9 mP | inhibition at 40 µM (Bcl-xL-Beclin 1 complex [1]): 27.8% | inhibition at 5 µM (Bcl-xL-Beclin 1 complex [2]; read-out: Dose-response (% Inhibition) 5 μM): -3% | inhibition at 10 µM (Bcl-xL-Beclin 1 complex [2]; read-out: Dose-response (% Inhibition) 10 μM): 19.4% | inhibition at 20 µM (Bcl-xL-Beclin 1 complex [2]; read-out: Dose-response (% Inhibition) 20 μM): 22.6% | inhibition at 40 µM (Bcl-xL-Beclin 1 complex [2]; read-out: Dose-response (% Inhibition) 40 μM): 23.4% | inhibition at 80 µM (Bcl-xL-Beclin 1 complex [2]; read-out: Dose-response (% Inhibition) 80 μM): 28.5% | inhibition at 160 µM (Bcl-xL-Beclin 1 complex [2]; read-out: Dose-response (% Inhibition) 160 μM): 35.9%
